Our source for the IC50 values is patent USRE50082E1, “(5,6-dihydro)pyrimido[4,5-e]indolizines” (NETHERLANDS TRANSLATIONAL RESEARCH CENTER B.V., priority 2014, dated 2024).

Molecules are shown by their SMILES. Bounds are passed on as bounds.

In this experiment the test system is MOLT-4 cancer cell line. Nature of the experiment: Cell proliferation assay, MOLT-4 cancer cell line (ATPlite).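 Note: luminescence read-out, percent growth versus compound-free DMSO wells as maximum growth, start-of-incubation signal separating growth from cell death, IC50 from logistic curve fit.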 To be noted: Homo sapiens, MOLT-4; 72 hours incubation, ATPlite 1Step; read-out: IC50 MOLT-4 cell proliferation. Type of experiment: cell-based.
On to `CCc1cccc(CC)c1NC(=O)c1ccn2c1CCc1cnc(Nc3cc(Cl)c(N4CCN(C)CC4)cc3OC)nc1-2` [Example 102, 2-[5-Chloro-2-methoxy-4-(4-methylpiperazin-1-yl)anilino]-N-(2,6-diethylphenyl)-5,6-dihydropyrimido[4,5-e]indolizine-7-carboxamide], for which the IC50 was in the range of 0.05 to 0.15 µM.

With `COc1cc(C(=O)NC2CCOCC2)ccc1Nc1ncc2c(n1)-n1ccc(C(=O)Nc3c(C)cccc3C)c1CC2` [Example 103, N-(2,6-dimethylphenyl)-2-[2-methoxy-4-(tetrahydropyran-4-ylcarbamoyl)anilino]-5,6-dihydropyrimido[4,5-e]indolizine-7-carboxamide], the IC50 was less than 0.05 µM. To `COc1cc(C(=O)NC2CNC2)ccc1Nc1ncc2c(n1)-n1ccc(C(=O)Nc3c(C)cccc3C)c1CC2` [Example 104, 2-[4-(Azetidin-3-ylcarbamoyl)-2-methoxy-anilino]-N-(2,6-dimethylphenyl)-5,6-dihydropyrimido[4,5-e]indolizine-7-carboxamide] belongs 0.05 to 0.15 µM; to `COCC(=O)N1CCN(c2ccc(Nc3ncc4c(n3)-n3ccc(C(=O)Nc5c(C)cccc5C)c3CC4)c(OC)c2)CC1` [Example 105, N-(2,6-dimethylphenyl)-2-[2-methoxy-4-[4-(2-methoxyacetyl)piperazin-1-yl]anilino]-5,6-dihydropyrimido[4,5-e]indolizine-7-carboxamide], less than 0.05 µM. As to `CCc1cccc(CC)c1NC(=O)c1ccn2c1CCc1cnc(Nc3cnc(N4CCN(C)CC4)nc3OC)nc1-2` [Example 107, N-(2,6-diethylphenyl)-2-[[4-methoxy-2-(4-methylpiperazin-1-yl)pyrimidin-5-yl]amino]-5,6-dihydropyrimido[4,5-e]indolizine-7-carboxamide], the IC50 is less than 0.05 µM.

`CCc1nn(CCOC)c(CC)c1NC(=O)c1ccn2c1CCc1cnc(Nc3ccc(N4CCN(C)CC4)cc3OC)nc1-2` [Example 109, N-[3,5-diethyl-1-(2-methoxyethyl)pyrazol-4-yl]-2-[2-methoxy-4-(4-methylpiperazin-1-yl)anilino]-5,6-dihydropyrimido[4,5-e]indolizine-7-carboxamide]: the IC50 was less than 0.05 µM.

On to `COc1cc(N2CCN(C(=O)C3CC3)CC2)ccc1Nc1ncc2c(n1)-n1ccc(C(=O)Nc3c(C)cccc3C)c1CC2` [Example 112, 2-[4-[4-(Cyclopropanecarbonyl)piperazin-1-yl]-2-methoxy-anilino]-N-(2,6-dimethylphenyl)-5,6-dihydropyrimido[4,5-e]indolizine-7-carboxamide], for which the IC50 is less than 0.05 µM. With `CCCCS(=O)(=O)N1CCN(c2ccc(Nc3ncc4c(n3)-n3ccc(C(=O)Nc5c(C)cccc5C)c3CC4)c(OC)c2)CC1` [Example 113, 2-[4-(4-Butylsulfonylpiperazin-1-yl)-2-methoxy-anilino]-N-(2,6-dimethylphenyl)-5,6-dihydropyrimido[4,5-e]indolizine-7-carboxamide], the IC50 was less than 0.05 µM. Consider `CCNC(=O)N1CCN(c2ccc(Nc3ncc4c(n3)-n3ccc(C(=O)Nc5c(C)cccc5C)c3CC4)c(OC)c2)CC1` [Example 114, N-(2,6-dimethylphenyl)-2-[4-[4-(ethylcarbamoyl)piperazin-1-yl]-2-methoxy-anilino]-5,6-dihydropyrimido[4,5-e]indolizine-7-carboxamide], for which the IC50 is less than 0.05 µM. As to `CCc1cccc(CC)c1NC(=O)c1ccn2c1CCc1cnc(Nc3ccc(N4CCNC(C)C4)cc3OC)nc1-2` (centres unmarked) [Example 116, N-(2,6-diethylphenyl)-2-[2-methoxy-4-(3-methylpiperazin-1-yl)anilino]-5,6-dihydropyrimido[4,5-e]indolizine-7-carboxamide], the IC50 was less than 0.05 µM. As for `COc1cc(C(=O)N[C@@H]2CCNC[C@@H]2OC)ccc1Nc1ncc2c(n1)-n1ccc(C(=O)Nc3c(C)cccc3C)c1CC2` [Example 117, N-(2,6-dimethylphenyl)-2-[2-methoxy-4-[[(3S,4R)-3-methoxy-4-piperidyl]carbamoyl]anilino]-5,6-dihydropyrimido[4,5-e]indolizine-7-carboxamide], the IC50 was less than 0.05 µM.
